Experimental data reported in patent US20100004248A1, “Use of a Nitric Oxide Synthase Modulator for the Treatment of Cardiac Indications” (priority 2005, published 2010).

Columns and labels:
Protein kinase G = Protein kinase G activity in 9-week TAC hearts; type: in vivo, mouse; conditions: treatment during weeks 5-9
Source text: Protein kinase G activity increased nominally over time in 9-week TAC hearts, although this falls just short of statistical significance. […] Rather, the prior data supports an effect on reducing oxidant stress and re-coupling nitric oxide synthase.

[1] = test system: Adult myocytes isolated from wild-type C57/B16 mouse hearts; experiment: Sarcomere shortening of isolated adult myocytes exposed to isoproterenol; type: cell-based
[2] = test system: intact heart, beta-adrenergic stimulation by ISO; experiment: Contractility response of intact heart to isoproterenol (ISO); type: in vivo, mouse
Source text: Regulation of acute beta-adrenergic stress by PDE5a inhibition (resulting in a rise in cGMP and activation of protein kinase G) requires the activity of nitric oxide synthase (NOS). […] This can be offset by chronic distal activation of the NO target protein soluble guanylate cyclase 9sGC). At the left are bars depicting the contractility response of an intact heart to ISO before and after co-administration of SIL. The ISO response is normally blunted by nearly 80%. The middle bars show data from mice with NOS inhibited by L-NAME (1 mg/L in drinking water). […] However, if one continues to treat hearts with the soluble guanylate cyclase activator (BAY 41-8543) for a week-all the while continuing NOS inhibition with L-NAME, the ability of SIL to suppress adrenergic stimulation is restored.

With `CCCc1nn(C)c2c(=O)[nH]c(-c3cc(S(=O)(=O)N4CCN(C)CC4)ccc3OCC)nc12` [Sildenafil, sildenafil] the PKG activity (Protein kinase G) was “significantly increased”, the “ability to blunt the isoproterenol response” value ([1]; myocytes from hypertrophied and dilated hearts (3-4 weeks TAC), p=0.04) was “markedly diminished” and the “blunting of isoproterenol-increased sarcomere shortening” value ([1]; wild-type myocytes, isoproterenol 10 micromolar, sildenafil 0.1) was about 25%. The “blunting of ISO contractility response” value ([2]; intact heart, co-administration of SIL) was about 80% and the “inhibition of ISO response with NOS inhibited” value ([2]; mice given L-NAME 1 mg/L in drinking water for 1 week) was “no longer inhibited”.
